Experimental data from article PMC12058161, “The plant matrix of Artemisia annua L. for the treatment of malaria: Pharmacodynamic and pharmacokinetic studies” (PLOS One, 2025).
Values joined by “and” are separate entries in the source; they are usually repeats but may differ in a detail not shown here. Equal entries are not always repeated.

Columns and labels:
[1] = Stability of the five compounds in SD rat plasma (QC samples, UHPLC-ESI-MS/MS); type: in vitro ADME; settings: for stability, Accuracy (measured versus nominal concentration) / stability, mean ± SD (measured concentration): SD rat plasma, n=5
Description: The method was validated according to the US Food and Drug Administration (FDA) Bioanalytical Method Validation Guidance as follows: [1] specificity was assessed by analyzing blank plasma, blank plasma spiked with standard solutions and rat plasma samples after oral administration. Each calibration curve was plotted using the concentration of the standard solution as the horizontal coordinate and the ratio of analyte to internal standard peak area as the vertical coordinate. The lower limit of quantification (LLOQ) refers to the lowest concentration, which is typically 10 times the signal-to-noise ratio. It has an acceptable accuracy of ± 20% and a precision of less than 20% [3]. Quality Control (QC) samples (low, medium and high concentrations) were prepared for each analyte. Five samples were analyzed at each concentration level and three consecutive batches were determined to calculate the accuracy and precision of the method. Extraction recovery was assessed by the ratio of the average peak area of routinely prepared QC samples (low, medium, and high concentrations) to the post-extraction plasma sample. Likewise, matrix effect was assessed by the ratio of peak areas between post-extraction samples spiked with analytes and mobile phases spiked with the same concentration of analytes.

in vivo = settings: male, Sprague Dawley, rat, po, 352 mg/kg
Description: (§1) Blood samples were centrifuged at 3500 rpm for 5 min at 4°C. All plasma samples were then stored at -80°C until analysis.
(§2) All samples were stored in a refrigerator at -80°C and thawed at room temperature before processing. A 50 μL aliquot of plasma was added with 5 μL of the standard solution (or acetonitrile) and 100 μL of internal standard solution in turn, vortexed and mixed, then sonicated for 3 min, centrifuged at 14000 rpm for 10 min at low temperature. The supernatant was transferred to an autosampler vial and analyzed by UHPLC-ESI-MS/MS.
(§3) The mobile phase consisted of 0.1% formic acid solution (A) and acetonitrile (B).
(§4) The ESI ionization source was used and detected in MRM mode.
(§5) All data were presented as mean ± SD. Pharmacokinetic parameters including half-life (t1/2), maximum plasma time (Tmax) and concentration (Cmax), area under concentration-time curve (AUC0-t and AUC0-∞), clearance (CL), steady-state volume of distribution (Vz), and mean residence time (MRT) were analyzed by non-compartmental method using DAS Version 2.0 (Chinese Pharmacological Society, Beijing, China). […] The data were analyzed by Student’s t-test for two groups and one-way analysis of variance for multiple groups; p < 0.05 was considered statistically significant.

Caco-2 cells = assay: Cytotoxicity in Caco-2 cells, CCK-8 assay; type: cell-based, human; settings: for Cell survival rate%: mean; for cck-8 mean (survival fraction): mean of 6
Description: Caco-2 cells were cultured in 96-well plates for 48 h at a seeding density of 5.0 × 10^3 cells/well before the addition of drugs. […] The final concentration of DMSO was 0.05% (v/v). Experiments were initiated by replacing the culture medium in each well with 100 μL of sample solutions at 37°C in the CO2 incubator. After 48 h of incubation, the medium was removed and 10 μL of CCK-8 reagent in the serum-free medium was added to each well. The plates were then incubated at 37°C for another 2 h. At the end of the incubation period, the plates were quantified by reading the absorbance at 450 nm on a micro-plate multi-detection instrument, SpectraMax iD3 with SoftMax® Pro (Molecular Devices Corporation Sunnyvale, CA, USA). The percentage of cell viability was calculated based on the absorbance measured relative to the absorbance of cells exposed to the negative control.

[2] = male, Sprague Dawley, rat, in vivo
Description: as §1, §2, §3, §4, §5

P-glycoprotein (P-gp) = biological target: T1, P-glycoprotein (P-gp) (Homo sapiens, UniProt P08183); assay: Rhodamine 123 (P-gp substrate) transport across drug-treated Caco-2 cell monolayers; type: cell-based; settings: co-incubated with R123, 10 μM, Caco-2 monolayer, Fig 6
T1 construct: The transport of R123 in normal Caco-2 cell monolayers or drug-treated Caco-2 cell monolayers was further studied; host or cells: Caco-2
Excerpt: The human epithelial cell line Caco-2 serves as a widely recognized model for the intestinal epithelial barrier, frequently utilized in the assessment of drug absorption and transport mechanisms. In this study, we evaluated drug absorption and distribution in vitro with the help of the Caco-2 cell model. Caco-2 cells were purchased from the Chinese Academy of Medical Sciences (Beijing, China, Resource No. 3111C0001CCC000100). The cells were resuscitated and inserted into culture flasks. Caco-2 cells were passaged with DMEM high glucose medium containing 10% (V/V) FBS, 1% (V/V) non-essential amino acid solution and 100 U/mL penicillin-streptomycin double antibiotic solution, and cultured at 37°C in a 5% CO2 incubator. […] The integrity of the cell monolayer was checked by measuring the transmembrane electrical resistance (TEER) of the monolayer cells with a Millicell-ERS electrode (Millipore Corp., Billerica, MA, USA). Caco-2 cells were used for transport experiments 17–21 days after inoculation. Besides, only monolayers with TEER values above 400 Ω/cm^2 were used in the study.
The transport of R123 in normal Caco-2 cell monolayers or drug-treated Caco-2 cell monolayers was further studied. […] The transport buffer containing 5 μM of R123 was added on either the AP or the BL side of the inserts, as described above. […] The concentrations of R123 were immediately analyzed by SpectraMax iD3. The excitation wavelength was set at 485 nm, and the emission wavelength at 535 nm. Papp values across the cell monolayers were calculated according to the equation: Papp = dQ/dt × 1/(A × C0), where dQ/dt represents the rate of drug transport. […] The efflux ratio was calculated using the Papp (BL-AP) to Papp (AP-BL) ratio.

CYP3A4 = settings: read-out: IC50 of CYP3A4 inhibition; cited from earlier work
[3] = nominal 160 ng/mL, 3 freeze-thaw cycles
[4] = nominal 160 ng/mL, 7 days at -80°C
[5] = nominal 160 ng/mL, Room temperature 24h
[6] = nominal 1000 ng/mL, 3 freeze-thaw cycles
[7] = nominal 1000 ng/mL, 7 days at -80°C
[8] = nominal 1000 ng/mL, Room temperature 24h
[9] = nominal 5000 ng/mL, 3 freeze-thaw cycles
[10] = nominal 5000 ng/mL, 7 days at -80°C
[11] = nominal 5000 ng/mL, Room temperature 24h
[12] = Caco-2, concentration 10 μmol/L
[13] = Caco-2, concentration 20 μmol/L
[14] = Caco-2, concentration 40 μmol/L
[15] = Caco-2, concentration 80 μmol/L

T1 sequence (P08183 whole entry): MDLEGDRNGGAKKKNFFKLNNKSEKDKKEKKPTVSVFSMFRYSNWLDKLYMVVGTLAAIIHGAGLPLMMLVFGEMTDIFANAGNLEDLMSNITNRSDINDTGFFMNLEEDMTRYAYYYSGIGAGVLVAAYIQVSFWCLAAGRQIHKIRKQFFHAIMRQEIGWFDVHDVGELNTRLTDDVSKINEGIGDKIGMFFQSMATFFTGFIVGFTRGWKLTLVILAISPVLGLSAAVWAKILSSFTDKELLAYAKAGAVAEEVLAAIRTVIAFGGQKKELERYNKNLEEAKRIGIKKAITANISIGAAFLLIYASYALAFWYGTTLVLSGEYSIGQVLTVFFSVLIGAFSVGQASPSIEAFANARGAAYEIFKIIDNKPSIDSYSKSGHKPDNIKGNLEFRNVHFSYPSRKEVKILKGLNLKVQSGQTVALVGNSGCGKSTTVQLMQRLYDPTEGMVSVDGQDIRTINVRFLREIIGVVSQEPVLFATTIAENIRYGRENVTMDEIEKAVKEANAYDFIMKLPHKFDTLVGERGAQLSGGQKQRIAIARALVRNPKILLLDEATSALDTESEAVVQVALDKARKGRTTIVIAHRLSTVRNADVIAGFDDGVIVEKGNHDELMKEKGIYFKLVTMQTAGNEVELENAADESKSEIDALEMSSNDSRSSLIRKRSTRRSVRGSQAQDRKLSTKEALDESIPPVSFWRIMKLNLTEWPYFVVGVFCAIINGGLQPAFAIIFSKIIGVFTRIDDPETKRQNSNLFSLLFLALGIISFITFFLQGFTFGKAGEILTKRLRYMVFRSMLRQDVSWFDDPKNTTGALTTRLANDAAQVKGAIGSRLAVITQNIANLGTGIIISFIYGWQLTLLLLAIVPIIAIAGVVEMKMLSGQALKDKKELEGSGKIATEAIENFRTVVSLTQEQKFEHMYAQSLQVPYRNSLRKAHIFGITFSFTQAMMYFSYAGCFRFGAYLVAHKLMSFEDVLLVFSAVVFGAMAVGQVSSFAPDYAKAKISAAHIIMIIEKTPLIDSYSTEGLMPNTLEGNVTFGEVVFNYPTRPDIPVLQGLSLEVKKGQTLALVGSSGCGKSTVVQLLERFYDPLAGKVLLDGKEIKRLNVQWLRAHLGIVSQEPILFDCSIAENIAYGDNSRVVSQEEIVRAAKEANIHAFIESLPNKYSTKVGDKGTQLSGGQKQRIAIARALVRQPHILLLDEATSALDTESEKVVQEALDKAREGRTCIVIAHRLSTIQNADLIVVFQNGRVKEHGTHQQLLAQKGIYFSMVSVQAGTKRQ

## CC1=C[C@H]2[C@@H](CC1)[C@H](C)CC[C@H]2[C@@H](C)C(=O)O [DHAA, Dihydroartemisinic acid]
[1]; QC sample 160 ng/mL, 3 freeze-thaw cycles
  Stability, measured concentration, mean ± SD: 161 ± 10.8 ng/mL and 160.872 ng/mL
[1]; QC sample 160 ng/mL, 7 days at -80°C
  Stability, measured concentration, mean ± SD: 149 ± 5.80 ng/mL and 149.16 ng/mL
[1]; QC sample 160 ng/mL, Room temperature 24h
  Stability, measured concentration, mean ± SD: 151 ± 5.81 ng/mL and 151.046 ng/mL
[1]; QC sample 1000 ng/mL, 3 freeze-thaw cycles
  Stability, measured concentration, mean ± SD: 914 ± 35.7 ng/mL and 914.334 ng/mL
[1]; QC sample 1000 ng/mL, 7 days at -80°C
  Stability, measured concentration, mean ± SD: 1064 ± 21.4 ng/mL and 1063.64 ng/mL
[1]; QC sample 1000 ng/mL, Room temperature 24h
  Stability, measured concentration, mean ± SD: 959.663 ng/mL and 960 ± 45.4 ng/mL
[1]; QC sample 5000 ng/mL, 3 freeze-thaw cycles
  Stability, measured concentration, mean ± SD: 4813 ± 108 ng/mL and 4813.44 ng/mL
[1]; QC sample 5000 ng/mL, 7 days at -80°C
  Stability, measured concentration, mean ± SD: 4814 ± 118 ng/mL and 4813.94 ng/mL
[1]; QC sample 5000 ng/mL, Room temperature 24h
  Stability, measured concentration, mean ± SD: 5079.03 ng/mL and 5079 ± 336 ng/mL
[1]; [3]
  stability, Accuracy (measured versus nominal concentration): 100.54%
  stability, mean ± SD (measured concentration): 161 ± 10.8 ng/mL
[1]; [4]
  stability, Accuracy (measured versus nominal concentration): 93.23%
  stability, mean ± SD (measured concentration): 149 ± 5.80 ng/mL
[1]; [5]
  stability, Accuracy (measured versus nominal concentration): 94.40%
  stability, mean ± SD (measured concentration): 151 ± 5.81 ng/mL
[1]; [6]
  stability, Accuracy (measured versus nominal concentration): 91.43%
  stability, mean ± SD (measured concentration): 914 ± 35.7 ng/mL
[1]; [7]
  stability, Accuracy (measured versus nominal concentration): 106.36%
  stability, mean ± SD (measured concentration): 1064 ± 21.4 ng/mL
[1]; [8]
  stability, Accuracy (measured versus nominal concentration): 95.97%
  stability, mean ± SD (measured concentration): 960 ± 45.4 ng/mL
[1]; [9]
  stability, Accuracy (measured versus nominal concentration): 96.27%
  stability, mean ± SD (measured concentration): 4813 ± 108 ng/mL
[1]; [10]
  stability, Accuracy (measured versus nominal concentration): 96.28%
  stability, mean ± SD (measured concentration): 4814 ± 118 ng/mL
[1]; [11]
  stability, Accuracy (measured versus nominal concentration): 101.58%
  stability, mean ± SD (measured concentration): 5079 ± 336 ng/mL
In vivo
  AUC(0-inf): 29700 ± 6700 ng·h/mL
  AUC(0-t): 28700 ± 6660 ng·h/mL
In vivo; Cmax
  Cmax: 10400 ± 2440 ng/mL
In vivo; MRT(0-∞)
  MRT inf: 6.08 ± 1.27 h
In vivo; t1/2
  half-life: 4.64 ± 1.18 h
In vivo; t1/2z
  half-life: 3.97 h
Caco-2 cells; Caco-2, 5μmol/L
  Cell survival rate%, single replicate: 84.02% and 84.22% and 87.64% and 85.87% and 89.84% and 87.8%
Caco-2 cells; Caco-2, 10μmol/L
  Cell survival rate%, single replicate: 84.68% and 88.84% and 86.58% and 89.08% and 86.49% and 80.21%
Caco-2 cells; Caco-2, 20μmol/L
  Cell survival rate%, single replicate: 84.63% and 81.53% and 85.05% and 89.44% and 83.52% and 78.29%
Caco-2 cells; Caco-2, 40μmol/L
  Cell survival rate%, single replicate: 84.99% and 84.53% and 82.56% and 83.98% and 80.6% and 81.3%
Caco-2 cells; Caco-2, 80μmol/L
  Cell survival rate%, single replicate: 80.04% and 80.37% and 80.83% and 80.86% and 80.51% and 80.11%
Caco-2 cells; Caco-2, concentration 5 μmol/L
  cck-8 cell survival as fraction, single replicate: 0.8402 and 0.8422 and 0.8764 and 0.8587 and 0.8984 and 0.878
  Cell survival rate%: 86.56%
  cck-8 mean (survival fraction): 0.87
Caco-2 cells; [12]
  cck-8 cell survival as fraction, single replicate: 0.8468 and 0.8884 and 0.8658 and 0.8908 and 0.8649 and 0.8021
  Cell survival rate%: 85.98%
  cck-8 mean (survival fraction): 0.86
Caco-2 cells; [13]
  cck-8 cell survival as fraction, single replicate: 0.8463 and 0.8153 and 0.8505 and 0.8944 and 0.8352 and 0.7829
  Cell survival rate%: 83.74%
  cck-8 mean (survival fraction): 0.84
Caco-2 cells; [14]
  cck-8 cell survival as fraction, single replicate: 0.8499 and 0.8453 and 0.8256 and 0.8398 and 0.806 and 0.813
  Cell survival rate%: 82.99%
  cck-8 mean (survival fraction): 0.83
Caco-2 cells; [15]
  cck-8 cell survival as fraction, single replicate: 0.8004 and 0.8037 and 0.8083 and 0.8086 and 0.8051 and 0.8011
  Cell survival rate%: 80.45%
  cck-8 mean (survival fraction): 0.80
[2]
  CLz: 24 mL/day/kg
[2]; po, 352 mg/kg
  CL: 0.001 ± 0.001 L/h
  Vz: 0.005 ± 0.001 L
P-glycoprotein (P-gp)
  reduction of R123 transport from the BL side to the AP side: 45.21%

## C=C1C(=O)O[C@@]23[C@H]1CC[C@@H](C)[C@@H]2CC[C@@]1(C)O[C@@H]31 [arteannuin B]
CYP3A4
  IC50: 1200 nM
